For data set [1], the system named is Eca-109/VCR. The experiment in a line: Induction of apoptosis in human Eca-109/VCR cells assessed as viable cells at 5 uM incubated for 60 hrs by Annexin V-FITC/PI staining based flow cytometric analysis (reference value: 97.4%). Type of data set: functional. The settings on record: read-out: Activity. (In general: Flow cytometry measures light scatter and fluorescence of single cells or particles in a stream.)

Data set [2] deals with Eca-109/VCR. The experiment in a line: Induction of apoptosis in human Eca-109/VCR cells assessed as viable cells at 2.5 uM incubated for 60 hrs in presence of vincristine by Annexin V-FITC/PI staining based flow cytometric analysis (reference value: 97.3%). The data set is classed as functional. The settings on record: read-out: Activity.
The test system of data set [3] is Eca-109/VCR. The experiment in a line: Induction of apoptosis in human Eca-109/VCR cells assessed as late apoptotic cells at 2.5 uM incubated for 60 hrs in presence of vincristine by Annexin V-FITC/PI staining based flow cytometric analysis (reference value: 0.56%). Type of data set: functional.
Data set [4] can be described thus: Reversal fold, ratio of docetaxel IC50 to docetaxel IC50 in presence of test compound for reversal of drug resistance in human Eca-109/VCR cells at 5 uM incubated for 48 hrs by CCK-8 assay. Type of data set: functional. A general note: Tetrazolium assays rely on reduction of a dye to a coloured formazan, in cell work by metabolically active cells.
Data set [5] concerns Eca-109/VCR. The experiment in a line: Effect on p-gp expression in human Eca-109/VCR cells at 5 to 10 uM incubated for 24 hrs by Western blotting analysis. The data set is classed as functional, cell-based. The settings on record: dose 5-10 µM.
A short description of data set [6]: Reversal fold, ratio of lapatinib IC50 to lapatinib IC50 in presence of test compound for reversal of drug resistance in human Eca-109/VCR cells at 5 uM incubated for 48 hrs by CCK-8 assay. Type of data set: functional.
A short description of data set [7]: Reversal fold, ratio of doxorubicin IC50 to doxorubicin IC50 in presence of test compound for reversal of drug resistance in human Eca-109/VCR cells at 5 uM incubated for 48 hrs by CCK-8 assay. The data set is classed as functional.
Data set [8] has as its system Eca-109/VCR. The experiment in a line: Induction of apoptosis in human Eca-109/VCR cells assessed as late apoptotic cells at 5 uM incubated for 60 hrs by Annexin V-FITC/PI staining based flow cytometric analysis (reference value: 0.70%). Type of data set: functional.
The subject of data set [9] is Eca-109/VCR. The experiment in a line: Induction of apoptosis in human Eca-109/VCR cells assessed as necrotic cells at 5 uM incubated for 60 hrs in presence of vincristine by Annexin V-FITC/PI staining based flow cytometric analysis (reference value: 0.10%). The data set is classed as functional.
A short description of data set [10]: Reversal fold, ratio of vincristine IC50 to vincristine IC50 in presence of test compound for reversal of drug resistance in human Eca-109/VCR cells at 5 uM incubated for 48 hrs by CCK-8 assay. The data set is classed as functional.
In data set [11] the test system is Eca-109/VCR. The experiment in a line: Induction of apoptosis in human Eca-109/VCR cells assessed as necrotic cells at 2.5 uM incubated for 60 hrs in presence of vincristine by Annexin V-FITC/PI staining based flow cytometric analysis (reference value: 0.10%). Type of data set: functional.
For data set [12], the system named is Eca-109/VCR. The experiment in a line: Induction of apoptosis in human Eca-109/VCR cells assessed as early apoptotic cells at 2.5 uM incubated for 60 hrs by Annexin V-FITC/PI staining based flow cytometric analysis (reference value: 1.66%). The data set is classed as functional.
For data set [13], the system named is Eca-109/VCR. The experiment in a line: Cytotoxicity against human Eca-109/VCR cells assessed as reduction in cell viability at 5.0 uM incubated for 48 hrs by CCK-8 assay relative to control. Type of data set: functional.
Data set [14] in a line: Reversal fold, ratio of colchicine IC50 to colchicine IC50 in presence of test compound for reversal of drug resistance in human Eca-109/VCR cells at 5 uM incubated for 48 hrs by CCK-8 assay. Type of data set: functional.
The subject of data set [15] is Eca-109/VCR. The experiment in a line: Induction of apoptosis in human Eca-109/VCR cells assessed as viable cells at 5 uM incubated for 60 hrs in presence of vincristine by Annexin V-FITC/PI staining based flow cytometric analysis (reference value: 97.3%). The data set is classed as functional. The settings on record: read-out: Activity.
Data set [16] deals with Eca-109/VCR. The experiment in a line: Reversal of multi-drug resistance in human Eca-109/VCR cells assessed as decrease in cloning formation at 0.5 to 2 uM incubated for 8 days by crystal violet staining based analysis. Type of data set: functional, cell-based. The settings on record: dose 0.5-2 µM, time 8.0 day.
The test system of data set [17] is Eca-109/VCR. The experiment in a line: Induction of apoptosis in human Eca-109/VCR cells assessed as viable cells at 2.5 uM incubated for 60 hrs by Annexin V-FITC/PI staining based flow cytometric analysis (reference value: 97.4%). Type of data set: functional. The settings on record: read-out: Activity.
The test system of data set [18] is Eca-109/VCR. The experiment in a line: Induction of apoptosis in human Eca-109/VCR cells assessed as early apoptotic cells at 5 uM incubated for 60 hrs by Annexin V-FITC/PI staining based flow cytometric analysis (reference value: 1.66%). The data set is classed as functional.
Data set [19] can be described thus: Reversal fold, ratio of mitoxantrone IC50 to mitoxantrone IC50 in presence of test compound for reversal of drug resistance in human Eca-109/VCR cells at 5 uM incubated for 48 hrs by CCK-8 assay. Type of data set: functional.
In data set [20] the test system is Eca-109/VCR. The experiment in a line: Reversal of multi-drug resistance in human Eca-109/VCR cells assessed as decrease in cloning formation at 0.5 to 2 uM incubated for 8 days in presence of vincristine by crystal violet staining based analysis. Type of data set: functional, cell-based. The settings on record: dose 0.5-2 µM, time 8.0 day.
For data set [21], the system named is Eca-109/VCR. The experiment in a line: Induction of apoptosis in human Eca-109/VCR cells assessed as late apoptotic cells at 5 uM incubated for 60 hrs in presence of vincristine by Annexin V-FITC/PI staining based flow cytometric analysis (reference value: 0.56%). Type of data set: functional.
A short description of data set [22]: Apparent clearance in male Sprague-Dawley rat at 10 mg/kg, po measured after 24 hrs by UPLC-MS/MS analysis. The data set is classed as ADME, organism-based. The settings on record: in vivo, read-out: CL(app) (converted).
The subject of data set [23] is Eca-109/VCR. The experiment in a line: Induction of apoptosis in human Eca-109/VCR cells assessed as late apoptotic cells at 2.5 uM incubated for 60 hrs by Annexin V-FITC/PI staining based flow cytometric analysis (reference value: 0.70%). The data set is classed as functional.
Data set [24] deals with Eca-109/VCR. The experiment in a line: Reversal of multi-drug resistance in human Eca-109/VCR cells assessed as decrease in cloning formation incubated for 8 days in presence of vincristine by crystal violet staining based analysis. Type of data set: functional, cell-based. The settings on record: dose 0.5-2 µM, time 8.0 day.
Data set [25] relates to Eca-109/VCR. The experiment in a line: Induction of apoptosis in human Eca-109/VCR cells assessed as necrotic cells at 2.5 uM incubated for 60 hrs by Annexin V-FITC/PI staining based flow cytometric analysis (reference value: 0.22%). The data set is classed as functional.
The test system of data set [26] is Eca-109/VCR. The experiment in a line: Cytotoxicity against human Eca-109/VCR cells assessed as reduction in cell viability incubated for 48 hrs by CCK-8 assay. The data set is classed as functional, cell-based.

Data on two compounds can be found in ChEMBL document CHEMBL6182888, “Design, synthesis, and biological activity study of 6,7-dimethoxy-1,2,3,4-tetrahydroisoquinoline derivatives against multidrug resistance in Eca109/VCR cells” (Eur J Med Chem, 2025).

Calls of active or inactive are those of the source. The calls are words filed in the database; no cut-off is given here.

Regarding `COc1cc2c(cc1OC)C(Cc1ccc(OS(=O)(=O)c3ccccc3[N+](=O)[O-])c(OC)c1)N(C)CC2` (configuration not stated), the viability at 5 µM was determined as 97.1% in data set [1] and 94.5% in data set [15]. In addition, the viability at 2.5 µM in [2] was found to be 75.4%; in data set [17], 96.9%. For the same compound, the Activity in data set [3] amounted to 5.47%; in [8], 1%; in data set [9], 0.7%; in data set [11], 0.63%; in data set [12] it was 2.19%; in data set [18], 1.61%. Also, the Activity result in data set [20] was “Active; Compound Showed Superior Reversal Activity Compared To Oy-101”; in [21], 9.21%; in data set [23], 0.53%; in data set [24], “Dose-dependent-effect”; in [25] it was 0.29%. The “Ratio IC50” value is on record as 149.7 in data set [4]; 1 in data set [6]; 29.4 in data set [7]; 467.7 in [10]; 98.2 in [14]; 10 in data set [19]. The result in data set [5] was Active. Further, in [13], the “Cell viability (% of control)” value was determined as 99.1%. For the same compound, the result in data set [16] was inactive. For the same compound, in data set [22], the CL/F was 393 L/h/kg.
For the compound `CC[C@]1(O)C[C@H]2CN(CCc3c([nH]c4ccccc34)[C@@](C(=O)OC)(c3cc4c(cc3OC)N(C=O)[C@H]3[C@@](O)(C(=O)OC)[C@H](OC(C)=O)[C@]5(CC)C=CCN6CC[C@]43[C@@H]65)C2)C1` [VINCRISTINE], the IC50 in [26] came to 4.15 µM. Also, the result in data set [16] was inactive.

A word on the IC50: it is the concentration that gives 50% inhibition.
